Literature values, collected in patent publication US7662360B2, “Conjugates of N-hydroxypropymethacrylamide-methacrylate copolymer with nuclide activation agent and/or anti-cancer compounds” (Psimei Pharmaceuticals PLC, priority 2002, dated 2010).

Settings: dose BPA 900-1200 mg/kg (30 mg/ml), CuTCPH 200 mg/kg (6 mg/ml), BSH dose not given

sodium mnercaptoundecahydrododecaborate [BSH]
Absolute tumour concentration: 6.9 µg/g

N[C@@H](Cc1ccc(B(O)O)cc1)C(=O)O [BPA, 4-dihydroxyborylphenylalanine]
Absolute tumour concentration: 16.5 µg/g
